Values of other authors, collected in patent EP0292255A2, “Inhibitor of ribonucleotide reductase” (Merck & Co., Inc., priority 1987, dated 1988).
Ends that are not written are not given here.

Test system: ribonucleotide reductase enzyme of herpes simplex virus
Details: result in words, from Nature 321:439-441 and 441-443 (1986)

Substance	inhibition of the activity of the ribonucleotide reductase enzyme of herpes simplex virus in vitro
Tyr Ala Gly Ala Val Val Asn Asp Leu (YAGAVVNDL; printed: Tyr Ala Gly Ala Val Val Asn Asp Leu) [nonapeptide disclosed by Dutia et al. and Cohen et al]	inhibited
YGAVVNDL [8-desalanine homolog of the nonapeptide, disclosed by Dutia et al]	inhibited
